Reference: ChEMBL document CHEMBL1201862, “PubChem BioAssay data set” (2004)
Active and inactive are the calls of the source.

Experiments:
[1] = biological target: T1, Ubiquitin-conjugating enzyme E2 N (Homo sapiens, UniProt P61088); type: functional
T1 sequence (P61088 whole entry): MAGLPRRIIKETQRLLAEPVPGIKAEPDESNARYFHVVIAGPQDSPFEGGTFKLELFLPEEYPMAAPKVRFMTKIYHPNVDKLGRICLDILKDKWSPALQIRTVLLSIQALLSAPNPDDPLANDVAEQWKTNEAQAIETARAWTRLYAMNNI

[2] = NIH-3T3 fibroblast cytotoxicity, dose response, cytotoxicity control, cell-based, fluorescence, Alamar Blue, secondary assay (AID 2327); type: functional;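 further: NIH-3T3 mouse fibroblasts cultured with fluconazole at 8 µg/mL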
[3] = biological target: T2, Small ubiquitin-related modifier 1 (Homo sapiens, UniProt P63165); assay: SUMO1 protein-protein binding blockers, potency – biochemical, FRET, dose response (AID 624383); type: functional; conditions: read-out: IC50_Mean
Bcl-2-related protein A1 = biological target: T3, Bcl-2-related protein A1 (Mus musculus, UniProt Q07440); type: functional;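 further: confirmatory dose–response counterscreen on Bfl-1, used to check hits from a UBC13 polyubiquitin inhibitor campaign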
T3 sequence (Q07440 whole entry): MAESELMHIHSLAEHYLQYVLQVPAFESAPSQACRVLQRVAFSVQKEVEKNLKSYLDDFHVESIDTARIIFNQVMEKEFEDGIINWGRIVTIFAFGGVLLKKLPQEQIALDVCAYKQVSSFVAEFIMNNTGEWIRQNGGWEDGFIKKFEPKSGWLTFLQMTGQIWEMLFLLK

[4] = biological target: T1, Ubiquitin-conjugating enzyme E2 N; type: functional; remark: listed apart in the source
[5] = biological target: T4, DNA repair and recombination protein RAD54-like (Homo sapiens, UniProt Q92698); assay: RAD54 Holliday junction migration blockers – biochemical, fluorescence, cherry-picked samples, dose series, confirmation (AID 651657); type: functional
T4 sequence (Q92698 whole entry): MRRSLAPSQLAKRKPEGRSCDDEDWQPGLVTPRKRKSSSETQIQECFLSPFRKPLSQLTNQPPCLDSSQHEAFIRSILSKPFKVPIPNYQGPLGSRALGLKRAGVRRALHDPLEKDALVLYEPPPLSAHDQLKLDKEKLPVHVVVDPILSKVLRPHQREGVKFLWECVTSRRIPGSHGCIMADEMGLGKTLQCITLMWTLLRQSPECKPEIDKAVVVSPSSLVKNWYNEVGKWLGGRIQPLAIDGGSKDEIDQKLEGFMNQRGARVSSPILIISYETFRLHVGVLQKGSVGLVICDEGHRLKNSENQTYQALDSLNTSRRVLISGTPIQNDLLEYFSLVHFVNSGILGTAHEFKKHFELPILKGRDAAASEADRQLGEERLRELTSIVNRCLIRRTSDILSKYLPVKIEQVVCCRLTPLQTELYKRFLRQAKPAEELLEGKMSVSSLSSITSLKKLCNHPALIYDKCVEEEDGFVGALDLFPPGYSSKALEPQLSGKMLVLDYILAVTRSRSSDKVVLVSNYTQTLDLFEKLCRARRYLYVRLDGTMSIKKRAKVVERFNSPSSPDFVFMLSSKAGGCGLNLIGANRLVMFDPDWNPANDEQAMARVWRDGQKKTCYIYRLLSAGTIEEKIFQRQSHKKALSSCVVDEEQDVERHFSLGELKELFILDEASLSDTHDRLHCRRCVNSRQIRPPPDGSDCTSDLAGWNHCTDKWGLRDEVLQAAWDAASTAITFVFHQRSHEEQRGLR

[6] = biological target: T2, Small ubiquitin-related modifier 1; assay: SUMO1 protein interaction blockers, potency – biochemical, fluorescence polarization, uHTS hits, dose response (AID 624382); type: functional; conditions: read-out: IC50_Mean
[7] = fluconazole-exposed Candida albicans growth modulators – fluorescence, retest, confirmation (AID 2467); type: functional, cell-based
[8] = biological target: T5, Rac GTPase-activating protein 1 (Homo sapiens, UniProt Q9H0H5); assay: blockers of MgcRacGAP-driven Rac1 GTP hydrolysis – biochemical, ADP Hunter fluorescence, primary and confirmatory, confirmation (AID 624330); type: functional
T5 sequence (Q9H0H5 whole entry): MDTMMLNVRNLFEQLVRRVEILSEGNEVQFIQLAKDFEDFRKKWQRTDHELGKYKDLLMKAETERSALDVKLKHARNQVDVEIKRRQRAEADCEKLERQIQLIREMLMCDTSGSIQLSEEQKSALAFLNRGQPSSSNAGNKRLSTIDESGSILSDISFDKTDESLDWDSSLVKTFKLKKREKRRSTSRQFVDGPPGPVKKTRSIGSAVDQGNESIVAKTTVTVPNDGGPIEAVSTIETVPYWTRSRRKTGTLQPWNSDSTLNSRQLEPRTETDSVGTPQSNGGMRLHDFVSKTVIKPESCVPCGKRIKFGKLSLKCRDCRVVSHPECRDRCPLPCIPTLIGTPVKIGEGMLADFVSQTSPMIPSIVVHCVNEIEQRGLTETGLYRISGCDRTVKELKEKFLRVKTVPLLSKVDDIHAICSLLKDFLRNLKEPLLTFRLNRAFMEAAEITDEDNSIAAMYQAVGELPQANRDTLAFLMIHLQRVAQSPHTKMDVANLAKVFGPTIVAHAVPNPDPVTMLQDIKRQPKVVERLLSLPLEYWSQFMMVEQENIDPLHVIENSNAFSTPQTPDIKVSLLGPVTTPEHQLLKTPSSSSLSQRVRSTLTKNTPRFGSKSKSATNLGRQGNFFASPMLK

[9] = biological target: T6, Sentrin-specific protease 8 (Homo sapiens, UniProt Q96LD8); type: functional
T6 sequence (Q96LD8 whole entry): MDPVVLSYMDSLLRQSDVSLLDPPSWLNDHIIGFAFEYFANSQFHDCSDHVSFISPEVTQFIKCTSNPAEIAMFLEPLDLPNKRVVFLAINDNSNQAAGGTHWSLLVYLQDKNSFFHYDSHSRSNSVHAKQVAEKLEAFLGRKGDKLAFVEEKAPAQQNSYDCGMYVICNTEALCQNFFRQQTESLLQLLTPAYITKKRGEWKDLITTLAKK

[10] = biological target: T6, Sentrin-specific protease 8; type: functional; remark: listed apart in the source
[11] = biological target: 26S proteasome non-ATPase regulatory subunit 14 (Homo sapiens, UniProt O00487); assay: inhibition of proteasome subunit RPN11 – biochemical, fluorescence polarization, uHTS hits, confirmation (AID 602368); type: functional
[12] = biological target: T7, Carboxy-terminal domain RNA polymerase II polypeptide A small phosphatase 1 (Homo sapiens, UniProt Q9GZU7); assay: CTDSP1 inhibitors, concentration-response, biochemical, absorbance readout, ultra-high-throughput screen actives (AID 540297); type: functional
T7 sequence (Q9GZU7 whole entry): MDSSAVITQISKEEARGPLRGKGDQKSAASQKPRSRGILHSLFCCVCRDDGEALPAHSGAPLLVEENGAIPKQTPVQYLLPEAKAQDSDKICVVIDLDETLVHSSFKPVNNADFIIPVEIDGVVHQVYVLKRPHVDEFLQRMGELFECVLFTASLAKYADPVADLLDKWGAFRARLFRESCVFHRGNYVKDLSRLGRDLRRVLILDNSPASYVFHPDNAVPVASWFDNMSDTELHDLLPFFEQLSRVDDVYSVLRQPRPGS

Aminopeptidase N = biological target: T8, Aminopeptidase N (Plasmodium falciparum FcB1/Columbia, UniProt O96935); assay: malaria alanyl aminopeptidase activity blockers – biochemical, fluorogenic H-Leu-NHMec substrate, 1536-well (AID 1445); parameters: species or system Plasmodium falciparum 3D7, 3D7
T8 sequence (O96935 whole entry): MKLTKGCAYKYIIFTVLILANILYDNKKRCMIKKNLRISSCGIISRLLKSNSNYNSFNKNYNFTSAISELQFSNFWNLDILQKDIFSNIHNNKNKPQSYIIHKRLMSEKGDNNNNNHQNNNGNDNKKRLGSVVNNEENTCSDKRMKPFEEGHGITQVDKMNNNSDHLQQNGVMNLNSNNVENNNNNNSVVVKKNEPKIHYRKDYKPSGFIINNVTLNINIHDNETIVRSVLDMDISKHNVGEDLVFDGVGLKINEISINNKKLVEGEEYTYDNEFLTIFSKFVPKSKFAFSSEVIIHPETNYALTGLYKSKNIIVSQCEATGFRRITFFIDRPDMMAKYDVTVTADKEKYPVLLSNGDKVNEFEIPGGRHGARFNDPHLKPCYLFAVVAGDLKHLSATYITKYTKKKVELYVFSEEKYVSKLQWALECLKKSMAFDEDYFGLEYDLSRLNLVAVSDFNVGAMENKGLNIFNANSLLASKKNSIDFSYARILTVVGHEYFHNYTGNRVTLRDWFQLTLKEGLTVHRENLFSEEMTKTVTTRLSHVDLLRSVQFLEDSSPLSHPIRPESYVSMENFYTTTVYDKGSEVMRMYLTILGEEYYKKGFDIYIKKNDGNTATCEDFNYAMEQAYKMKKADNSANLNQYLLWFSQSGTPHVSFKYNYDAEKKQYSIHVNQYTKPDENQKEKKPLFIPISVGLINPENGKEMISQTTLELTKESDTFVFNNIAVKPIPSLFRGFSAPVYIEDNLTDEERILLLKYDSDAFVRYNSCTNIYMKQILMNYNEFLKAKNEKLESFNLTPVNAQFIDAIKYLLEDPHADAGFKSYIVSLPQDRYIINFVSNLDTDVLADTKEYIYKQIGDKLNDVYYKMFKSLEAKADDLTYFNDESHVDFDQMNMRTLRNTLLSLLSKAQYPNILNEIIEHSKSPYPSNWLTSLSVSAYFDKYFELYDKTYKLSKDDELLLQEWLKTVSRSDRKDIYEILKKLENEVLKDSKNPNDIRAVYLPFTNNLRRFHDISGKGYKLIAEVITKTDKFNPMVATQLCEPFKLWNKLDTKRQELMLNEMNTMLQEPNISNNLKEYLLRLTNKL

Prothrombin = Prothrombin (Bos taurus, UniProt P00735); assay: thrombin protease inhibitors – biochemical, fluorescence polarization, uHTS hits, dose response (AID 602369); type: functional
[13] = biological target: 72 kDa type IV collagenase (Homo sapiens, UniProt P08253); assay: Dose Response validation of uHTS RPN11 inhibitor hits using a MMP-2 Fluorescence assay.; type: functional
P388/ADR = assay: cells; type: functional; conditions: Mus musculus
SN12K1 = assay: cells; type: functional; conditions: Homo sapiens
[14] = activation of miR-122 Renilla sensor silencing – cell-based, Huh7 psiCHECK-miR122, Renilla luciferase, cherry-picked, dose response (AID 651956); type: functional;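 further: huh7 hepatoma cells stably carrying a psiCHECK-2 miR-122 sensor plasmid; renilla luciferase signal reporting endogenous miR-122 activity after 48 h compound exposure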

T2 sequence (P63165 whole entry): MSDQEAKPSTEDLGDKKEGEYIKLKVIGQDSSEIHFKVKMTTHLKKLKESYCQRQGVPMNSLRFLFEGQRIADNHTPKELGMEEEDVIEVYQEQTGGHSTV
72 kDa type IV collagenase, sequence (P08253 whole entry): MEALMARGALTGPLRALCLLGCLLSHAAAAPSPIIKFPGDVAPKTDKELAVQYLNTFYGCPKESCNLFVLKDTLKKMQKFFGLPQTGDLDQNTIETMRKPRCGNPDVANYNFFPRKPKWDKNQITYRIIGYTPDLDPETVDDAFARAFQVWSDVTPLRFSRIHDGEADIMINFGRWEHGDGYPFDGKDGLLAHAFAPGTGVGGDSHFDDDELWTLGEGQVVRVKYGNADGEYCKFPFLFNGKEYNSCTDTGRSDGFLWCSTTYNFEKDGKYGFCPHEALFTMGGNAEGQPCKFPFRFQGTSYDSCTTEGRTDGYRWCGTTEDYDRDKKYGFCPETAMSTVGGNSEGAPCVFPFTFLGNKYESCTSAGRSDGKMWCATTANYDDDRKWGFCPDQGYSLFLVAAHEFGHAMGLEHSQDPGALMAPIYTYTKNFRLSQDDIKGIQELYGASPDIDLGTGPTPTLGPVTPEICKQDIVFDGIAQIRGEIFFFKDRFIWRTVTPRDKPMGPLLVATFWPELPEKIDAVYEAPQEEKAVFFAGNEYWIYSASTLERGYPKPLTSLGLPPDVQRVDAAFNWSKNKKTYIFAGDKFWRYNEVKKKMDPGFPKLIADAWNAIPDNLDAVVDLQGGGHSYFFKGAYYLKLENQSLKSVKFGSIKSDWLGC
26S proteasome non-ATPase regulatory subunit 14, sequence (O00487 whole entry, the tested form may be a part): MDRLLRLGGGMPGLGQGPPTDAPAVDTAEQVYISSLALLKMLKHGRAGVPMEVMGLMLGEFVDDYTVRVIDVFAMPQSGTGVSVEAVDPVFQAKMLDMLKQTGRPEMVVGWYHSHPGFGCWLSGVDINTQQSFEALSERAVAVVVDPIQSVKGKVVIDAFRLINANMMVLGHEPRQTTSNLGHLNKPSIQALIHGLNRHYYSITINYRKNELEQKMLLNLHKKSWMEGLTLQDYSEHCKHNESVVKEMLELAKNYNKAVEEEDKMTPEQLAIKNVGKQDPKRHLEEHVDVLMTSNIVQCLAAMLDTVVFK

Q: Which results are given for `O=C(Nc1ccc(C2=NCCN2)cc1)c1ccc(C(=O)Nc2ccc(C3=NCCN3)cc2)c(Cl)c1`?
A: IC50 [1]: 1.7 µM (active); EC50 [2]: > 160 µM (inactive); IC50 [3]: 4.61 µM (active); IC50 (Bcl-2-related protein A1): 9.71 µM (active); IC50 [4]: 3.32 µM (active); AC50 [5]: 13.8 µM (active); IC50 [6]: > 66.6 µM (inactive); EC50 [7]: 0.157 µM (active); IC50 [8]: 35.8 µM (active)

Q: Which results are given for `COC/C=C/C1=CC2=CC(=O)C(C)(OC(=O)c3cnc4ccccc4n3)C(=O)C2=CN1CCCOC(C)C` (stereo unspecified)?
A: IC50 [9]: 19.9 µM (active); IC50 [10]: 8.09 µM (active)

Q: For `COc1ccccc1N1C(=N)S/C(=C\c2ccc(-c3ccccc3C(=O)O)o2)C1=O`, which IC50 [11] is on record?
A: 24.8 µM (active)

Q: What about the IC50 [12] of the same compound?
A: 8.51 µM (active)

Q: And the IC50 (Aminopeptidase N)?
A: 21.7 µM (active)

Q: And the IC50 (Prothrombin)?
A: 68.5 µM (active)

Q: What about the IC50 [13] of the same compound?
A: > 100 µM (inactive)

Q: What does the source list for `COc1ccc(-n2c(SCC(=O)Nc3cccc(S(N)(=O)=O)c3)nc3ccccc3c2=O)cc1OC`?
A: IC50 [3]: 4.19 µM (active); IC50 [6]: > 66.6 µM (inactive)

Q: For `O=C1NC(=O)C(Nc2ccccc2)C(=O)N1`, which IC50 [9] is on record?
A: 22.5 µM (active)

Q: What about the IC50 [10] of the same compound?
A: 28.5 µM (active)

Q: Which results are given for `C/C(=C/c1c(C)[nH]c(=O)[nH]c1=O)C(=O)O`?
A: GI50 (P388/ADR): 813 µM (inactive); GI50 (SN12K1): > 1370 µM (inactive)

Q: For `CCC(=O)N(C)C[C@@H]1[C@H](c2ccc(-c3ccccc3F)cc2)[C@H](CO)N1C(C)=O`, which AC50 [14] is on record?
A: 49.5 µM (active)

Q: Which AC50 [14] does the source give for `CN1C(=O)c2cc(NC(=O)c3cccc(F)c3)ccc2OC[C@@H]2O[C@H](CC(=O)O)CC[C@H]21` here?
A: 51.2 µM (active)

Q: Which IC50 [3] does the source give for `CCCCCCC(=O)Nc1nc(C)c(-c2csc(Nc3cc(OC)ccc3OC)n2)s1` here?
A: 11.2 µM (active)

Q: And the IC50 [6]?
A: > 66.6 µM (inactive)
